Test results from PMC6520475 (European Journal of Drug Metabolism and Pharmacokinetics, 2018).

What was measured:
[1] = general statement, no reference given; cited from earlier work
[2] = cited from earlier work
[3] = Population pharmacokinetic; conditions: base model without covariates

- θ1CL, population typical value of CL, base model [3]: 2.47 L/h
- θ2Vd, population typical value of Vd, base model [3]: 142 L
SMILES: CN[C@H](CC(C)C)C(=O)N[C@H]1C(=O)N[C@@H](CC(N)=O)C(=O)N[C@H]2C(=O)N[C@H]3C(=O)N[C@H](C(=O)N[C@H](C(=O)O)c4cc(O)cc(O)c4-c4cc3ccc4O)[C@H](O)c3ccc(c(Cl)c3)Oc3cc2cc(c3O[C@@H]2O[C@H](CO)[C@@H](O)[C@H](O)[C@H]2O[C@H]2C[C@](C)(N)[C@H](O)[C@H](C)O2)Oc2ccc(cc2Cl)[C@H]1O [vancomycin]
- Fraction of vancomycin excreted through the kidney [1]: 90%
- Vd, PopPK model ([2]; Adult Chinese patients, n = 72, 1-compartment model, ref 7 (Deng)): 47.76 L
- V2, PopPK model ([2]; Adult Gram-positive bacterial infection in ICU, n = 103, ref 25 (Weng Fangjuan)): 44.2 L
- CL, PopPK model ([2]; MRSA infectors, n = 76, 1-compartment model, ref 11 (Leu)): CLCR
